Assay results taken from ChEMBL document CHEMBL1201862, “PubChem BioAssay data set” (2004).
The source made the active and inactive calls.

Assays:
[1] = test system: Vero; experiment: Vero cell cytotoxicity, cytotoxicity control for flavivirus capping enzyme inhibitors (AID 588742); format: functional; settings: Chlorocebus sabaeus
[2] = Shn3 3'UTR reporter inhibitors, dose response, cell-based, Clone20 osteoblasts, firefly luciferase, cherry-picked (AID 624132); format: functional;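 note: firefly luciferase luminescence from reporter carrying the Shn3 3'UTR in osteoblasts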
[3] = molecular target: Potassium voltage-gated channel subfamily KQT member 2 (Rattus norvegicus, UniProt O88943, W236L); experiment: KCNQ2 channel potentiators, dose response, mechanism study for KCNQ2 potentiator project, cell-based, automated electrophysiology (AID 2603); format: functional
[4] = molecular target: T1, High affinity choline transporter 1 (Homo sapiens, UniProt Q9GZV3); experiment: CHT inhibitors, dose response, cell-based, 5-point CRC, membrane potential dye (AID 504840); format: functional
T1 sequence (Q9GZV3 whole entry): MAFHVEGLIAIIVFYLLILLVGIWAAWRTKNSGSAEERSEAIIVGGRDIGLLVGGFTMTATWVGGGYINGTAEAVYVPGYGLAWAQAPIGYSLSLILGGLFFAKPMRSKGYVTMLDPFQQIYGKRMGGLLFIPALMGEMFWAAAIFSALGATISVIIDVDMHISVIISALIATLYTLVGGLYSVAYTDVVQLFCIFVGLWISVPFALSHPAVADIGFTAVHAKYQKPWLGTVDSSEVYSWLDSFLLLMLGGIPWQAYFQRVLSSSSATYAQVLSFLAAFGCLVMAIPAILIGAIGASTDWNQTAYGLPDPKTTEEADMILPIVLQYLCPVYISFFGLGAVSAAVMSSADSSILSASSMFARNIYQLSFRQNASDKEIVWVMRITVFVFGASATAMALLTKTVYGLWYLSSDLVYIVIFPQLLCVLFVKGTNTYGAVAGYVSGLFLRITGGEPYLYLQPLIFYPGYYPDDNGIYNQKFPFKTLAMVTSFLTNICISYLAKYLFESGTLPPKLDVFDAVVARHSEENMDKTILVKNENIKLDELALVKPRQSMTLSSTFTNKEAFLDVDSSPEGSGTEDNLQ

[5] = control 3'UTR Renilla luciferase suppression, dose response, counter-screen for Shn3 inhibitor project, cell-based, Clone20-Shn3RL, cherry-picked (AID 624133); format: functional
[6] = molecular target: ATP-binding cassette sub-family B member 6 (Homo sapiens, UniProt Q9NP58); experiment: ABCB6 transporter inhibitors, porphyrin accumulation, dose response, flow cytometry, K562-ABCB6 cells, cherry pick 02 (AID 624487); format: functional; settings: read-out: EC50_MICROM
[7] = molecular target: T2, Replicative DNA helicase DnaB (Mycobacterium tuberculosis, UniProt P9WMR3); experiment: DnaB intein splicing inhibitors, dose response, biochemical, cell-free fluorescence (AID 449749); format: functional
T2 sequence (P9WMR3 whole entry): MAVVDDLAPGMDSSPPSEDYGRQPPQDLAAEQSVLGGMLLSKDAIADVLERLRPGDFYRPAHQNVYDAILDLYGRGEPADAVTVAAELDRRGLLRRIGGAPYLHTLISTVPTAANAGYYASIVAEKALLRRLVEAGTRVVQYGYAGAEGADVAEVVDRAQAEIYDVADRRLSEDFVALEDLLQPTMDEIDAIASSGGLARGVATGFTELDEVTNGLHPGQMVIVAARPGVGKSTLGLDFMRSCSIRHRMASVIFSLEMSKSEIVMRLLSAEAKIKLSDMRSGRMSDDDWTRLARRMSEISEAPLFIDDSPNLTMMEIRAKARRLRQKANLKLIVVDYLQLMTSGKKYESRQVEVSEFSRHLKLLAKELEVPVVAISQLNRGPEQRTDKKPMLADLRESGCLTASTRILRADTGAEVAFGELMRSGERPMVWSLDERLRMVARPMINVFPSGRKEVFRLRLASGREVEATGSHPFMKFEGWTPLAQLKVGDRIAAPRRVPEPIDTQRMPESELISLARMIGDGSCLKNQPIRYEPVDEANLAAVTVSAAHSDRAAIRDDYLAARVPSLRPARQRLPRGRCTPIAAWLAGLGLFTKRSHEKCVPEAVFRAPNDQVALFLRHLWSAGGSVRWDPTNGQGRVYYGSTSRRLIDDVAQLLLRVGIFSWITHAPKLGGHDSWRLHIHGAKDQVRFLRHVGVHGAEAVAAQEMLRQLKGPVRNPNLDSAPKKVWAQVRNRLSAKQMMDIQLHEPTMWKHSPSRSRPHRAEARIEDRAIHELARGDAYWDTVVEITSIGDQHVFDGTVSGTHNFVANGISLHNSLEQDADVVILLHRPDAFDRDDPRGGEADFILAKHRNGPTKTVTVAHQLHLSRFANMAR

[8] = molecular target: T3, Protein RecA (Mycobacterium tuberculosis, UniProt P9WHJ3); experiment: Fluorescence Cell-Free Homogeneous Dose Retest to Identify Inhibitors of RecA-Intein Splicing Activity. [Related pubchem assays (depositor defined):AID2097, AID2223, AID489010, AID492950]; format: functional
T3 sequence (P9WHJ3 whole entry): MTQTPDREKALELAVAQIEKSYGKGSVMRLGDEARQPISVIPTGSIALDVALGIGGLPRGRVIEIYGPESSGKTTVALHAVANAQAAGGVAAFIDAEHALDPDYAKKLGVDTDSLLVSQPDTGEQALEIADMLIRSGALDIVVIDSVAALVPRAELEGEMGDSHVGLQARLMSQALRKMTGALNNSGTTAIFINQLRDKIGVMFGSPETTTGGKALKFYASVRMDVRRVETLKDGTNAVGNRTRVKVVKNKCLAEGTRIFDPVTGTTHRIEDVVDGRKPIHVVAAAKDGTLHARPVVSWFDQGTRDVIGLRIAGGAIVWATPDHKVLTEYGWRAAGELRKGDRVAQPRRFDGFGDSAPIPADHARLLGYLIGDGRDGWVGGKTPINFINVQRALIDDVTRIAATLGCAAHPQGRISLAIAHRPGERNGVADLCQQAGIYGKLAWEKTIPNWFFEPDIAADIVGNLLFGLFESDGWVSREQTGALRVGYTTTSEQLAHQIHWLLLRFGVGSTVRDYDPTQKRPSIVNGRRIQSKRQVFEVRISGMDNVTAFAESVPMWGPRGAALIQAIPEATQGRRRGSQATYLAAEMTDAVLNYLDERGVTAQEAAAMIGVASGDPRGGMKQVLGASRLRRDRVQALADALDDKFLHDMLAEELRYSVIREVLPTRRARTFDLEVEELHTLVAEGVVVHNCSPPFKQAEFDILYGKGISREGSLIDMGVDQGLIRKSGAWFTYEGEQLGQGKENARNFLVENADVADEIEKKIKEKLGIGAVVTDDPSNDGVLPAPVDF

[9] = molecular target: Genome polyprotein (dengue virus type 2, UniProt P29990); experiment: Dengue-2 NS5 methyltransferase inhibitors, primary screen, biochemical, confirmation dose response (AID 588689); format: functional
[10] = molecular target: Sphingosine 1-phosphate receptor 3 (Homo sapiens, UniProt Q99500); experiment: Dose response cell-based high throughput screening assay for antagonists of the Sphingosine 1-Phosphate Receptor 3 (S1P3). [Related pubchem assays: 1429, 485 ]; format: functional
[11] = molecular target: 5-hydroxytryptamine receptor 1E (Homo sapiens, UniProt P28566); experiment: Counterscreen assay for S1P3 antagonists: Dose response cell-based high throughput screening assay to identify antagonists of the 5-Hydroxytryptamine Receptor Subtype 1E (5HT1E). [Related pubchem assays: 1429, 485 ]; format: functional
[12] = growth suppression of beta-catenin-knockout colon cells, dose response, cell-based, HCT116, human colon tumor (AID 1045); format: functional;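 note: HCT116 colon tumor cells with beta catenin knocked out; cells exposed to compound for 60 hours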
[13] = test system: BJ; experiment: cells; format: functional, cell-based; settings: Homo sapiens
[14] = test system: BJ; experiment: cytotoxicity toward Ras-transformed BJeLR fibroblasts, dose response, cell-based, alamar blue fluorescence, cherrypicked samples (AID 2631); format: functional; settings: Homo sapiens;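 note: confirmatory dose-response assay in RAS-dependent BJ fibroblasts engineered with TERT, LT and ST, with cytotoxicity read by fluorescence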
[15] = test system: INS1; experiment: beta cell apoptosis inhibitors, cytokine rescue, dose response, luminescence, retest (AID 449756); format: functional, cell-based; settings: Rattus norvegicus;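 note: cell death triggered by IL-1 beta plus TNF-alpha plus IFN-gamma mixture; protective hits raise ATP signal compared with cytokine alone wells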
[16] = molecular target: T4, Heat shock factor protein 1 (Mus musculus, UniProt P38532); experiment: inhibition of MG132-induced HSE-luciferase signal, confirmation, cell-based, NIH3T3, luminescence, dose retest (AID 2382); format: functional;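 note: NIH3T3 fibroblasts with HSF1-driven luciferase reporter stressed by proteasome inhibitor MG132; luminescence from HSF1-driven luciferase expression after 8 hours of MG132 stress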
T4 sequence (P38532 whole entry): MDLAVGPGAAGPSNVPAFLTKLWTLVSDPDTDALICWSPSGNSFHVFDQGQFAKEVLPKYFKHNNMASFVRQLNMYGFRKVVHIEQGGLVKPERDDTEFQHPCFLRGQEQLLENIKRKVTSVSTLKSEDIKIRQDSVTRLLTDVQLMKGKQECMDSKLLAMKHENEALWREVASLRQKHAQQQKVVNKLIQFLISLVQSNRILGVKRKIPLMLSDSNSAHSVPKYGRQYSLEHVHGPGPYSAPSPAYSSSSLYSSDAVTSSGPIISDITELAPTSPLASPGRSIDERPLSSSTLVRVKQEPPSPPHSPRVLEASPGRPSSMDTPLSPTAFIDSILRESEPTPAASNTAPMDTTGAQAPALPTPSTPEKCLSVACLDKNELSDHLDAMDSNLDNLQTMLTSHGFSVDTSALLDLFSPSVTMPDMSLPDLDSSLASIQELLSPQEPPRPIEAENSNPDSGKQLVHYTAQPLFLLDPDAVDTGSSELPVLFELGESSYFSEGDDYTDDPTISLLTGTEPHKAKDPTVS

[17] = growth suppression of PTEN-null colon cells, dose response, cell-based, HCT116 PTEN knockout (AID 1047); format: functional;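 note: HCT116 colon tumor cells with PTEN knocked out; cells exposed to compound for 60 hours before readout; potency for loss of cell viability measured by luminescence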
[18] = cytotoxicity toward DRD oncogenic fibroblasts, dose response, cell-based, non-viral oncogenic, luminescence (AID 1934); format: functional; settings: Homo sapiens
[19] = test system: BJ; experiment: cytotoxicity toward BJ-TERT-LT-ST fibroblasts, dose response, cell-based, RAS-independent, luminescence (AID 1935); format: functional; settings: Homo sapiens;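 note: BJ fibroblasts immortalized with TERT plus LT and ST oncogenes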
[20] = test system: BJ; experiment: cytotoxicity toward BJ-TERT fibroblasts, dose response, cell-based, RAS-independent, luminescence (AID 1933); format: functional; settings: Homo sapiens
[21] = molecular target: T5, Apoptotic protease-activating factor 1 (Homo sapiens, UniProt O14727); format: functional
T5 sequence (O14727 whole entry): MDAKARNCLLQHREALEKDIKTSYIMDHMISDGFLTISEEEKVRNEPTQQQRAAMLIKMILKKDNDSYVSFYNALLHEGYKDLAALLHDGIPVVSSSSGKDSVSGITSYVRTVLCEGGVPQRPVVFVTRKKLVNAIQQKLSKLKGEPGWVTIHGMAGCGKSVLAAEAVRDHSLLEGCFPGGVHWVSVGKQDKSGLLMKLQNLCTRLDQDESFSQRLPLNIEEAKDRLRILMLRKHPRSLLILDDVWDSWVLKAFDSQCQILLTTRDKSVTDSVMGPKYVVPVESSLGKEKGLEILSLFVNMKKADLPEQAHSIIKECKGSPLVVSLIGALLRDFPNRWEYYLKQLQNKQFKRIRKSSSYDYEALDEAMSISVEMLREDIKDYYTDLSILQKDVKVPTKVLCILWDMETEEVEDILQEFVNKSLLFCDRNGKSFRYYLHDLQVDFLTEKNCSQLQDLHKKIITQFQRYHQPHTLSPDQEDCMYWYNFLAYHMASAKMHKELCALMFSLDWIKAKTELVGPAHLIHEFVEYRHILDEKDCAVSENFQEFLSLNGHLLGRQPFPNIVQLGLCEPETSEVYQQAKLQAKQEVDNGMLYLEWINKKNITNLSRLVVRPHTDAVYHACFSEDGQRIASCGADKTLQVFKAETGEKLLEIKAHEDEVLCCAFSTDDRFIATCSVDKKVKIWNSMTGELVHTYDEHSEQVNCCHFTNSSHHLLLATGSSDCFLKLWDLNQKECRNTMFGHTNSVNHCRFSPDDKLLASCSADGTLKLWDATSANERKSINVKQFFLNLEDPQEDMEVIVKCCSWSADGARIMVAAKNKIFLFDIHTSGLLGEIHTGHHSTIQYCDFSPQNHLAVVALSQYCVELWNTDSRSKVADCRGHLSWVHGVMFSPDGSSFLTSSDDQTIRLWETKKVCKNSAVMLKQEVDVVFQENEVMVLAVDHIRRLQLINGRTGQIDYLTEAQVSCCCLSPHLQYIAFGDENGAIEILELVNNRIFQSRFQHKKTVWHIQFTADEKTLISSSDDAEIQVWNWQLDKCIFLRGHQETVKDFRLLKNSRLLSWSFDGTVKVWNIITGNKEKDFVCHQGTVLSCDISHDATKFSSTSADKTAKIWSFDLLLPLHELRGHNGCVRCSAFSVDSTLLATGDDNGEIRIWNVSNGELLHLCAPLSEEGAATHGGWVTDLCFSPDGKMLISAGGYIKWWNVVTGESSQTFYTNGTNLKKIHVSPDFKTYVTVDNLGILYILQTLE

[22] = molecular target: Mothers against decapentaplegic homolog 3 (Homo sapiens, UniProt P84022); experiment: SMAD3 transcription factor inhibitors, dose response (AID 715); format: functional
Chain of Mothers against decapentaplegic homolog 3 (P84022 whole entry): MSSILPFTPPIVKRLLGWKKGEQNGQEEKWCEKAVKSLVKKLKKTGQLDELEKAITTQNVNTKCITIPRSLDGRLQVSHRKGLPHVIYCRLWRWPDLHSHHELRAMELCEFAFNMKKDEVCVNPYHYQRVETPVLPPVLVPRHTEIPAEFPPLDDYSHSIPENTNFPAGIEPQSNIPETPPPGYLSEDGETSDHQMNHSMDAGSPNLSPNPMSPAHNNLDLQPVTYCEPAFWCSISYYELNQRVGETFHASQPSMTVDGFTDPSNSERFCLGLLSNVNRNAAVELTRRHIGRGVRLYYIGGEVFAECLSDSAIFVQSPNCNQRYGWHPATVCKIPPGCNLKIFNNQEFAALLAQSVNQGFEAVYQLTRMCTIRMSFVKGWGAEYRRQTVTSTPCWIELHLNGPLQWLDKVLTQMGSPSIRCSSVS

Chain of 5-hydroxytryptamine receptor 1E (P28566 whole entry): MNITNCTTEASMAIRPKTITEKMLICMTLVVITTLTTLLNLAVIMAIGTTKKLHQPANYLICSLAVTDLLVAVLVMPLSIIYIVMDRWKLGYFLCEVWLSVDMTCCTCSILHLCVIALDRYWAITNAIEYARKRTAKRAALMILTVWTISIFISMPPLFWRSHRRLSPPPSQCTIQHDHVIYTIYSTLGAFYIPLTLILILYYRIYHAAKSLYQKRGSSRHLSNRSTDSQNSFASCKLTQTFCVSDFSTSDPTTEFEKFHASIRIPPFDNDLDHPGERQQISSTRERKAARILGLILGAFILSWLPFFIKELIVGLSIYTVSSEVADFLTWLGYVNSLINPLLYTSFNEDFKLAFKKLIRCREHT
Chain of Genome polyprotein (P29990 2492-3391 limits assumed): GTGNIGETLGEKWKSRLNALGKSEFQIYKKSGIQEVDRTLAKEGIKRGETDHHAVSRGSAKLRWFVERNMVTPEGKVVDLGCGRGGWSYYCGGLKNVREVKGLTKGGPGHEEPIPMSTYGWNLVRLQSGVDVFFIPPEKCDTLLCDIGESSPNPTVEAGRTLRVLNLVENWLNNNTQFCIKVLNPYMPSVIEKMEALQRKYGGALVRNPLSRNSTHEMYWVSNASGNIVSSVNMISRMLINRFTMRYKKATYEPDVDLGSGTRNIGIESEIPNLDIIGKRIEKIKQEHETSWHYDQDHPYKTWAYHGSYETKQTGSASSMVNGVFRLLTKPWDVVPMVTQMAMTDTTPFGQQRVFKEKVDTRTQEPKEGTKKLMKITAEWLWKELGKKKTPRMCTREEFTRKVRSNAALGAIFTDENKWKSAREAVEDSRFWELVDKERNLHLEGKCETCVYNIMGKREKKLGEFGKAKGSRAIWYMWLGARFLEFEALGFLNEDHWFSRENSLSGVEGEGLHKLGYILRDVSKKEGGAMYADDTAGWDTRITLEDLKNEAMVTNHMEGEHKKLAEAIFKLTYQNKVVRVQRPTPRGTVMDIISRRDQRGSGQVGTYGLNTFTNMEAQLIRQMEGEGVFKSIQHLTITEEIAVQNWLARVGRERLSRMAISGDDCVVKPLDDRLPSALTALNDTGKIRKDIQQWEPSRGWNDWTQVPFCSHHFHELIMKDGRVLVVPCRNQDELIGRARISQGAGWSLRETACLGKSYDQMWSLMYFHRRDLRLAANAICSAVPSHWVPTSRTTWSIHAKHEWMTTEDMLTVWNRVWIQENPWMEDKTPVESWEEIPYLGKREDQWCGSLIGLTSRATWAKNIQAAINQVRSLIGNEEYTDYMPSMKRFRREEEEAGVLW
Chain of Sphingosine 1-phosphate receptor 3 (Q99500 whole entry): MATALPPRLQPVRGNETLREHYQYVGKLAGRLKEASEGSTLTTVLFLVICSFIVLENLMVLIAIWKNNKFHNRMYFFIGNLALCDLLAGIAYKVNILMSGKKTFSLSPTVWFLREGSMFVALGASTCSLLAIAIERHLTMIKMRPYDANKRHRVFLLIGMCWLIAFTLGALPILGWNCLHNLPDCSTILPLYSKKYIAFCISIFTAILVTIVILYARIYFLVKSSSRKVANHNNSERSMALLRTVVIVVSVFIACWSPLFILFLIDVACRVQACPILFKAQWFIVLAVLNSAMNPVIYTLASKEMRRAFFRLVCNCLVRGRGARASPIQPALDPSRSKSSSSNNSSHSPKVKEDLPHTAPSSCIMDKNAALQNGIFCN
Chain of ATP-binding cassette sub-family B member 6 (Q9NP58 whole entry): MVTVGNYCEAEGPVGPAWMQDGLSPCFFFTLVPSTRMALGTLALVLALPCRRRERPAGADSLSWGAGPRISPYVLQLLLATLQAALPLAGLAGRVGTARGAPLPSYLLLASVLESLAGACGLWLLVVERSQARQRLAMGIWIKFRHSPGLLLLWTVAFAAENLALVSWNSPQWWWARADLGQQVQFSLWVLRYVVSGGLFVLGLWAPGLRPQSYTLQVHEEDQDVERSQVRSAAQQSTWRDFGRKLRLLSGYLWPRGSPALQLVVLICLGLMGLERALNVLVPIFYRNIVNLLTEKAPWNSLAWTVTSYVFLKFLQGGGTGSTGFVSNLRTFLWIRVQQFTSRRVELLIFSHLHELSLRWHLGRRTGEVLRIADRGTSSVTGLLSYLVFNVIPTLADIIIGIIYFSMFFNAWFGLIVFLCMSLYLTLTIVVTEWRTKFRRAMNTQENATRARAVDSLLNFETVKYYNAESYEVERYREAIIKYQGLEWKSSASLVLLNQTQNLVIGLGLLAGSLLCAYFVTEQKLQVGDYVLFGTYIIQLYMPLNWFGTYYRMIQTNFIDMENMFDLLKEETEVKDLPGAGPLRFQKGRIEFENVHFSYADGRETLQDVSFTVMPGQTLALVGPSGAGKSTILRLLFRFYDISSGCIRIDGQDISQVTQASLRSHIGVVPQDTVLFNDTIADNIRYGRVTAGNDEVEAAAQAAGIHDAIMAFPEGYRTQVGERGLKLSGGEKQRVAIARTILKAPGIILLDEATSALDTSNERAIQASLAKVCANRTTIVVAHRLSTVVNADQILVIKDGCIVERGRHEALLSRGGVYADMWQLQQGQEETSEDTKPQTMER
Chain of Potassium voltage-gated channel subfamily KQT member 2 (O88943 whole entry W236L): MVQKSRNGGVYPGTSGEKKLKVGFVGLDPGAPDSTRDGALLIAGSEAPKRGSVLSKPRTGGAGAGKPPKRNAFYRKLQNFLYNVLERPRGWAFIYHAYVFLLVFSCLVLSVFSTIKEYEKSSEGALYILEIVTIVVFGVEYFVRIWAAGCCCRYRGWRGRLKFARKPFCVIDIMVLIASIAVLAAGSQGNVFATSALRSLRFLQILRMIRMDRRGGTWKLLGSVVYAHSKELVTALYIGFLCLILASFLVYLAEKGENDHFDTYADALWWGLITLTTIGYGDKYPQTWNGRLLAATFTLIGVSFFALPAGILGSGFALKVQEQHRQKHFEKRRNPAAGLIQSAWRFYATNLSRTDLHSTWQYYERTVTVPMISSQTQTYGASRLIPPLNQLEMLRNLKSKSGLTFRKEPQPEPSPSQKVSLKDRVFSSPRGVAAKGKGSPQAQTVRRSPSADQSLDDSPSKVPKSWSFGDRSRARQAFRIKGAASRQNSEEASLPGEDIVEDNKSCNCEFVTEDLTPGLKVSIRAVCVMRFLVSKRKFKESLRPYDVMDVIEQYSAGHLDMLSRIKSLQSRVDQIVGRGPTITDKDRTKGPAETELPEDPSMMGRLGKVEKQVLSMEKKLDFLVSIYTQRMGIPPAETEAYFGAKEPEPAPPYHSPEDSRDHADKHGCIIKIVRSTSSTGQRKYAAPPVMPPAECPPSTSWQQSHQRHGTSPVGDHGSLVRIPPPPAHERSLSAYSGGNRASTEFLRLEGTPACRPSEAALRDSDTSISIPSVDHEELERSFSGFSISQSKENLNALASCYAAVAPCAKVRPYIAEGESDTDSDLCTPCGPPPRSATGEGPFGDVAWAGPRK

With `CC(C)c1nnc(NC(=O)c2nc(S(=O)(=O)Cc3ccccc3)ncc2Cl)s1` the CC50 [1] was 25.9 µM (active), the AC50 [2] was 0.876 µM (active) and the EC50 [3] was 6.2 µM (active). For the same compound, the IC50 [4] was 4.47 µM (active), the AC50 [5] was 6.32 µM (active) and the EC50 [6] was 36.8 µM (active). The AC50 [7] was 48 µM (active), the EC50 [8] was 8.12 µM (active) and the IC50 [9] was > 100 µM (active).

With `Cc1cc(C(=O)OC(C(=O)Nc2ccc(C)c(Cl)c2)c2ccccc2)c(C)o1` (configuration not stated) the IC50 [10] was 11.8 µM (not active) and the IC50 [11] was 13.4 µM (not active).

With `O=C1C(=O)c2ccc(-c3ccccc3)cc2-c2ccccc21` the EC50 [12] was 1.21 µM (active), the EC50 [13] was 2.75 µM (inconclusive) and the EC50 [14] was 1.6 µM (active). The AC50 [15] was 1.04 µM (active), the EC50 [16] was 1.75 µM (active) and the EC50 [17] was 1.16 µM (active). For the same compound, the EC50 [18] was 2.21 µM (active), the EC50 [19] was 1.23 µM (inconclusive) and the EC50 [20] was 1.02 µM (active). For the same compound, the IC50 [21] was 0.316 µM (active) and the IC50 [22] was 2 µM (active).
